Source: ChEMBL document CHEMBL1201862, “PubChem BioAssay data set” (2004)
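Assay format: 96-well plates, 48-hour exposure. GI50 is the concentration that inhibits growth by half.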 The source made the active and inactive calls. Rule as the data show it: active = GI50 up to about 1.1 µM and inactive = higher.

Experiments:
Assay in all cases: growth of human tumour cells (NCI), 48 h
786-0 = test system: 786-0
A498 = test system: A498
COLO 205 = test system: COLO 205
HCC 2998 = test system: HCC 2998
HOP-92 = test system: HOP-92
IGROV-1 = test system: IGROV-1
MDA-N = test system: MDA-N
MOLT-4 = test system: MOLT-4
Malme-3M = test system: Malme-3M
NCI-H460 = test system: NCI-H460
RXF 393 = test system: RXF 393
SF-268 = test system: SF-268
SF-295 = test system: SF-295
SK-OV-3 = test system: SK-OV-3
T47D = test system: T47D
TK-10 = test system: TK-10
U-251 = test system: U-251
UACC-257 = test system: UACC-257
UACC-62 = test system: UACC-62
SNB-75 = test system: SNB-75

Measured: GI50

COc1cc(Nc2nnc3n2S(=O)(=O)c2cc(C)c(Cl)cc2S3)cc(OC)c1
inactive: 786-0 4.22 µM | A498 19.1 µM | COLO 205 13.2 µM | HCC 2998 6.18 µM | HOP-92 5.26 µM | IGROV-1 1.87 µM | MDA-N 4.68 µM | MOLT-4 4.29 µM | Malme-3M 2.17 µM | NCI-H460 23.8 µM | RXF 393 10.5 µM | SF-268 11.5 µM | SF-295 21.5 µM | SK-OV-3 14.2 µM | T47D 8.22 µM | TK-10 31.4 µM | U-251 10.9 µM | UACC-257 16.6 µM | UACC-62 18.1 µM

CN1CCN(Cn2nc(COc3ccccc3Cl)n(/N=C/c3ccc(-c4ccc(Cl)cc4Cl)o3)c2=S)CC1
inactive: 786-0 18.6 µM | A498 19.1 µM | HCC 2998 19.6 µM | HOP-92 14.3 µM | IGROV-1 28 µM | MDA-N 23.5 µM | MOLT-4 24.5 µM | NCI-H460 22.1 µM | RXF 393 17.3 µM | SF-268 54.5 µM | SF-295 27.4 µM | SK-OV-3 35.5 µM | T47D 19.5 µM | TK-10 23.9 µM | U-251 19.3 µM | UACC-257 34.8 µM

COc1ccc(/C=C2\N=C3NC(=O)C(N4CCOCC4)=C(N)N3C2=O)cc1
inactive: 786-0 53 µM | A498 > 100 µM | COLO 205 > 100 µM | HCC 2998 > 100 µM | HOP-92 > 100 µM | IGROV-1 85.5 µM | MDA-N > 100 µM | MOLT-4 > 100 µM | Malme-3M > 100 µM | RXF 393 46.7 µM | SF-268 76.2 µM | SF-295 59.7 µM | SK-OV-3 > 100 µM | SNB-75 24.8 µM | T47D > 100 µM | TK-10 53.7 µM | U-251 53.7 µM | UACC-257 > 100 µM

O=C(O)c1ccccc1/C=C1/Cc2ccc3c(c2C1=O)CCC3
inactive: 786-0 49 µM | A498 38.3 µM | COLO 205 19.1 µM | HCC 2998 30.5 µM | HOP-92 24.9 µM | IGROV-1 43.6 µM | MDA-N 29.6 µM | MOLT-4 33.8 µM | Malme-3M 50.8 µM | NCI-H460 45.4 µM | RXF 393 38.2 µM | SF-268 36.1 µM | SF-295 42.4 µM | SNB-75 39.4 µM | T47D 89.3 µM | TK-10 90.8 µM | U-251 27.6 µM | UACC-257 41.8 µM | UACC-62 38.9 µM

CCOC1=C(c2ccccc2)N2CCCCC2O1 (stereo not given)
inactive: 786-0 4.55 µM | A498 8.73 µM | COLO 205 2.22 µM | HCC 2998 3.12 µM | HOP-92 2.21 µM | IGROV-1 5.78 µM | MDA-N 4.03 µM | MOLT-4 4.27 µM | Malme-3M 5.7 µM | NCI-H460 3.39 µM | RXF 393 7.89 µM | SF-268 4.34 µM | SF-295 3.26 µM | SNB-75 2.83 µM | T47D 2.04 µM | TK-10 5.32 µM | U-251 3.35 µM | UACC-257 3.46 µM | UACC-62 3.48 µM

O=C1CC(CC(O)C(O)C(O)CO)CC(=O)N1 (stereo not given)
inactive: 786-0 > 100 µM | A498 > 100 µM | COLO 205 > 100 µM | HCC 2998 > 100 µM | HOP-92 > 100 µM | IGROV-1 > 100 µM | MDA-N > 100 µM | MOLT-4 > 100 µM | Malme-3M > 100 µM | NCI-H460 > 100 µM | RXF 393 > 100 µM | SF-268 > 100 µM | SF-295 > 100 µM | SNB-75 > 100 µM | T47D > 100 µM | U-251 > 100 µM | UACC-257 > 100 µM

CCOC(=O)/C(C(=S)NCc1ccccc1)=C(/N)N1CCCC1
inactive: 786-0 > 100 µM | A498 > 100 µM | COLO 205 > 100 µM | HCC 2998 > 100 µM | HOP-92 > 100 µM | IGROV-1 > 100 µM | MDA-N > 100 µM | MOLT-4 > 100 µM | Malme-3M > 100 µM | NCI-H460 > 100 µM | RXF 393 > 100 µM | SF-268 > 100 µM | SF-295 > 100 µM | T47D > 100 µM | TK-10 > 100 µM | U-251 > 100 µM | UACC-257 > 100 µM | UACC-62 > 100 µM

O=c1[nH]c(=O)n(C/C=C/CO)nc1Br
inactive: 786-0 > 100 µM | A498 > 100 µM | COLO 205 > 100 µM | HCC 2998 > 100 µM | HOP-92 > 100 µM | IGROV-1 > 100 µM | MDA-N > 100 µM | MOLT-4 > 100 µM | Malme-3M > 100 µM | NCI-H460 > 100 µM | RXF 393 > 100 µM | SF-268 > 100 µM | SF-295 > 100 µM | SNB-75 > 100 µM | T47D > 100 µM | TK-10 > 100 µM | U-251 > 100 µM | UACC-257 > 100 µM | UACC-62 > 100 µM
